For one test, the target named is D(3) dopamine receptor (Rattus norvegicus, UniProt P19020).
A short description of test [1]: Binding affinity towards D2-like dopamine receptor in caudate-putamen membranes of sprague-dawley rat brain by using [3H]spiperone as radioligand. In kind it is cell membranes, Membrane.
Test [2] can be described thus: Binding affinity towards D1-like dopamine receptor in caudate-putamen membranes of sprague-dawley rat brain by using [3H]-SCH- 23390 as radioligand. Format: cell membranes, Membrane.
For test [3], the species on record is Rattus norvegicus. Nature of the test: Ratio of binding affinity for D2-like receptor to that of dopamine D3 receptor.
The species named for test [4] is Rattus norvegicus. Briefly: Ratio of binding affinity for D1-like receptor to that of dopamine D3 receptor.

The structures appear in SMILES notation.

Chain of D(3) dopamine receptor (P19020 whole entry): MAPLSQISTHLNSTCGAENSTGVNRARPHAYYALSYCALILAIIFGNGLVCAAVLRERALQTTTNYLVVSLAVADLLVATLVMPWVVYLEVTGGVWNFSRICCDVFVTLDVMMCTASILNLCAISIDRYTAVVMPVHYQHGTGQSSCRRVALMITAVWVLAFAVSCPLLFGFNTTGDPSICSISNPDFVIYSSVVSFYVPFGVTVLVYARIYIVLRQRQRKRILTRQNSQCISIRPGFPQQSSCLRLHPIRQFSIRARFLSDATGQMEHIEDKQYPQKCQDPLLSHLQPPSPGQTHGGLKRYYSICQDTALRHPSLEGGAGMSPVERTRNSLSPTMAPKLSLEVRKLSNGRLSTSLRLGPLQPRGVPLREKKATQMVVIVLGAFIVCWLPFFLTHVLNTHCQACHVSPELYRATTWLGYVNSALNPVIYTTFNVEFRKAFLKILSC
Description for D(3) dopamine receptor: Binding affinity towards dopamine D3 receptor in ventral striatal membranes of sprague-dawley rat brain by using [3H]-PD 128907 as radioligand

As a reminder, the Ki is a dissociation constant, usually derived from enzyme kinetics or from competition with a known ligand. A low value points to higher affinity. Regarding `CCCCN1CCC2=C(CCc3ccccc32)C1`, the Ki on D(3) dopamine receptor came out at 25 nM; in test [1], 122 nM; in test [2] it was 1570 nM. For the same molecule, the Selectivity amounted to 5 in the test listed under Rattus norvegicus [3] and 62 in the test filed under Rattus norvegicus [4].
As for `COc1ccccc1N1CCN(CCCCNC(=O)c2ccc3ccccc3c2)CC1` [BP-897], the Ki was determined as 162 nM in test [1] and 636 nM in test [2].
On to `CCCN1CCC2=C(CCc3ccccc32)C1`, for which the results for the Ki (on D(3) dopamine receptor; in test [1]; in test [2]) were 63 nM, 84 nM and 1120 nM, respectively. In addition, the Selectivity in the test filed under Rattus norvegicus [3] came to 1; in the test filed under Rattus norvegicus [4] it was 18.
`c1ccc(CCCN2CCC3=C(CCc4ccccc43)C2)cc1` showed a Ki at D(3) dopamine receptor of 103 nM.
`O=C(NCCCCN1CCC2=C(CCc3ccccc32)C1)c1ccc2ccccc2c1`: the Ki on D(3) dopamine receptor came to 6.1 nM; in test [1], 811 nM; in test [2], 993 nM. In addition, the Selectivity in the test listed under Rattus norvegicus [3] worked out at 133; in the test filed under Rattus norvegicus [4], 163.
As for `c1ccc(CCN2CCC3=C(CCc4ccccc43)C2)cc1`, the results for the Ki (on D(3) dopamine receptor; in test [1]; in test [2]) were 84 nM, 3290 nM and 819 nM, respectively. In addition, the Selectivity in the test listed under Rattus norvegicus [3] amounted to 39; in the test filed under Rattus norvegicus [4], 10.
On D(3) dopamine receptor, `CCN1CCC2=C(CCc3ccccc32)C1` came in with a Ki of 183 nM.
With `CCCCCN1CCC2=C(CCc3ccccc32)C1`, the inhibition constant (Ki) amounted to 38 nM on D(3) dopamine receptor, 46 nM in test [1] and 1060 nM in test [2]. Also, the results for the Selectivity in the test filed under Rattus norvegicus [3] and in the test listed under Rattus norvegicus [4] were 1 and 28, respectively.
Take `c1ccc(CCCCN2CCC3=C(CCc4ccccc43)C2)cc1`: the figures for the Ki (on D(3) dopamine receptor; in test [1]; in test [2]) were 74 nM, 59 nM and 696 nM, respectively. Further, the Selectivity in the test filed under Rattus norvegicus [3] was 1; in the test filed under Rattus norvegicus [4] it was 9.

Source of the values: ChEMBL document CHEMBL1137107, “Design, synthesis, and evaluation of hexahydrobenz[f]isoquinolines as a novel class of dopamine 3 receptor ligands” (Bioorg Med Chem Lett, 2004).
